This passage reports CC50 results from PubChem BioAssay AID504530 (Southern Research Specialized Biocontainment Screening …, 2011).

The test relates to human PBMC cytotoxicity, % cell control. Put plainly: viability of primary blood mononuclear cells – cell-based, primary PBMCs, TC50, cytotoxicity control for HIV-1 antiviral lead project, dose response (AID 504530).
Take `Cc1c2c(=O)n(-c3nc4ccccc4s3)nc-2cc(O)n1CCc1ccc(O)cc1`: the half-maximal cytotoxic concentration (CC50) was 2.11 µM.

As to `COc1ccccc1Cn1c(O)cc2nn(-c3nc4ccccc4s3)c(=O)c-2c1C`, the CC50 is 22 µM.

For `Cc1c2c(=O)n(-c3nc4ccccc4s3)nc-2cc(O)n1CCC(C)C`, the CC50 was 41.1 µM.

`Cc1c2c(=O)n(-c3nc4ccccc4s3)nc-2cc(O)n1Cc1cccs1`: the CC50 is 25.7 µM.

Regarding `Cc1c2c(=O)n(-c3nc4ccccc4s3)nc-2cc(O)n1Cc1ccc(F)cc1`, the CC50 was 18.7 µM.

For the molecule `Cc1c2c(=O)n(-c3nc4ccccc4s3)nc-2cc(O)n1CCc1cccs1`, the cytotoxic concentration (CC50) was 71.2 µM.

As for `Cc1c2c(=O)n(-c3nc4ccccc4s3)nc-2cc(O)n1C1CC1`, the CC50 is 2.6 µM.

Regarding `Cc1c2c(=O)n(-c3nc4ccccc4s3)nc-2cc(O)n1Cc1cccnc1`, the cytotoxic concentration (CC50) was 2.15 µM.

For the molecule `COc1ccc(Cn2c(O)cc3nn(-c4nc5ccccc5s4)c(=O)c-3c2C)cc1`, the cytotoxic concentration (CC50) was 19.2 µM.

On to `Cc1c2c(=O)n(-c3nc4ccccc4s3)nc-2cc(O)n1Cc1ccccc1Cl`, for which the CC50 is 38.9 µM.

In the case of `COc1ccc(CCn2c(O)cc3nn(-c4nc5ccccc5s4)c(=O)c-3c2C)cc1`, the half-maximal cytotoxic concentration (CC50) was 60 µM.

Take `Cc1c2c(=O)n(-c3nc4ccccc4s3)nc-2cc(O)n1Cc1ccncc1`: the CC50 is 2.4 µM.

Usually CC50 stands for the concentration giving 50% cytotoxicity.
